Data as given in patent US11491165B2 (Kinoxis Therapeutics Pty Ltd, priority 2016, dated 2022).

Tests used:
[1] = biological target: T1, vasopressin 1a receptor (V1aR) (Homo sapiens, UniProt P37288); assay: Competition radioligand binding, [3H]-vasopressin, V1aR-expressing HEK293 membranes; conditions: [3H]-vasopressin 2 nM, 90 min 4 °C
T1 construct: expressed in transfected cells

[2] = biological target: T2, oxytocin receptor (OXTR), hOTR (Homo sapiens, UniProt P30559); assay: IP1 accumulation assay, OTR-expressing HEK-293 cells (agonist and antagonist assessment); format: cell-based; conditions: for Emax: HEK293, read-out: OXTR Emax (% OXT); for EC50 (OXTR agonist potency, mean ± s.d.) / EC50: agonist assessment; for EC50 (OXTR agonist potency, mean ± s.d.) / IC50: IP1; for EC50: IP1, 1 h; for IC50: antagonist assessment vs OT 30 nM (~EC70); for OV function: ratio of OXTR functional potency to V1aR functional potency, 'OT only' = function at OXTR only
T2 construct: expressed in transfected cells
T2 sequence (P30559 1-389): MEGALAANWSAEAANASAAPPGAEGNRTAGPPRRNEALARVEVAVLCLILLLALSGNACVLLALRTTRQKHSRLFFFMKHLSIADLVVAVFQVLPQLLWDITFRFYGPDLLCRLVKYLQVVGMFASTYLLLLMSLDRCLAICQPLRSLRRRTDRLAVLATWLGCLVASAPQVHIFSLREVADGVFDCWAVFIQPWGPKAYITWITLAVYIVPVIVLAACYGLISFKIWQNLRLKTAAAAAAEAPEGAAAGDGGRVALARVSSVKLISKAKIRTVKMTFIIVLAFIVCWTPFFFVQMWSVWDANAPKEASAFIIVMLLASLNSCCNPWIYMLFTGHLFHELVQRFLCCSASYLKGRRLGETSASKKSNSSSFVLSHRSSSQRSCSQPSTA
Method in brief: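 Flp-In T-REx HEK-293 cells stably expressing untagged hOTR were induced with tetracycline for 48 h, then exposed 1 h to compound (1 nM-100 μM) alone (agonist mode) or with 30 nM OT (~EC70; antagonist mode). IP1 was measured by HTRF, expressed as % of OT-plus-vehicle and fitted to a 4-parameter logistic curve; n≥3 experiments in duplicate.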

[3] = biological target: T2, oxytocin receptor (OXTR), hOTR; assay: Competition radioligand binding, [3H]-oxytocin, OTR-expressing HEK293 membranes; conditions: [3H]-oxytocin 10 nM, 90 min 4 °C
[4] = biological target: T1, vasopressin 1a receptor (V1aR); assay: IP1 accumulation assay, V1aR-expressing HEK-293 cells (agonist and antagonist assessment); format: cell-based; conditions: for EC50: agonist assessment, IP1, 1 h; for IC50: antagonist assessment vs AVP 25 nM (~EC70), IP1
BALB/c mice = assay: Murine social interaction test; format: in vivo, Mus musculus; conditions: male BALB/c mice, i.p., 10 min test 30 min after injection
Method: Example Testing Effect of WJ0679 on Murine Social Interaction (N=46)
Age: 6-7 weeks at testing
Vehicle: 88% isotonic saline, 10% DMSO, 2% tween 80
Route of administration: intraperitoneal (i.p.) injection
Mice were placed in the arena (40×40×40 cm) in weight and treatment matched pairs of unfamiliar mice for a 10 min test session, commencing 30 min after receiving their i.p. injection. The variables of interest were the time the mice spent in close physical contact with each other and the time each mouse spent engaged in active social investigation (sniffing the other mouse).

T1 sequence (P37288 whole entry): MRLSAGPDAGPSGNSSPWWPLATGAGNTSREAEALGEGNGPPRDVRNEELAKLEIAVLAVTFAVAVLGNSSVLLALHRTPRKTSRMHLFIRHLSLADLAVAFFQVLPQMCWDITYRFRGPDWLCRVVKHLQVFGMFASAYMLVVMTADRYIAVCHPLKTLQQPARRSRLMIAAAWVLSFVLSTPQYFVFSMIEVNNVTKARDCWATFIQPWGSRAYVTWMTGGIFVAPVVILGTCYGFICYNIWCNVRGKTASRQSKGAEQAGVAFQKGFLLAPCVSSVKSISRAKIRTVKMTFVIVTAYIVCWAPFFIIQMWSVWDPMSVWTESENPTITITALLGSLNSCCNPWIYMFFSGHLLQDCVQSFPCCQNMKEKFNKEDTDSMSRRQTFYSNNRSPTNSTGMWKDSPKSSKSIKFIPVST

Cn1ncc2c1Nc1ccccc1N(C(=O)C13CC4CC(CC(F)(C4)C1)C3)C2 [WJ0807mF, ((1r,3s,5R,7S)-3-Fluoroadamantan-1-yl)(1-methyl-4,10-dihydrobenzo[b]pyrazolo[3,4-e][1,4]diazepin-5 (1H)-yl)methanone]
Ki [1]: 1090 ± 58.3 nM
Emax [2]: 25.3%
EC50 (OXTR agonist potency, mean ± s.d.) [2]: 632.5 ± 148 nM
EC50 [2]: 2400 ± 652 nM
Ki [3]: > 10000 nM
melting point: 266 to 268 °C (dec.)
EC50 [4]: > 10000 nM
IC50 [4]: > 10000 nM

Cn1ncc2c1Nc1ccccc1N(C(=O)c1cc(O)cc(O)c1)C2 [WJ0623, (3,5-Dihydroxyphenyl)(1-methyl-4,10-dihydrobenzo[b]pyrazolo[3,4-e][1,4]diazepin-5 (1H)-yl)methanone]
Ki [1]: 4.6 ± 1.3 nM
EC50 [2]: > 10000 nM
IC50 [2]: 1760 nM
OV function [2]: 8.59
Ki [3]: 92.6 ± 10 nM
melting point: > 300 °C
EC50 [4]: > 10000 nM
IC50 [4]: 205 ± 57.6 nM

COc1cc(CN2Cc3cnn(C)c3Nc3ccccc32)cc(OC)c1 [WJ0625, 5-(3,5-Dimethoxybenzyl)-1-methyl-1,4,5,10-tetrahydrobenzo[b]pyrazolo[3,4-e][1,4]diazepine]
Ki [1]: > 10000 nM
EC50 [2]: > 10000 nM
IC50 [2]: > 10000 nM
Ki [3]: > 10000 nM
melting point: 210 to 212 °C
EC50 [4]: > 10000 nM
IC50 [4]: > 10000 nM

Cn1ncc2c1Nc1ccccc1N(C(=O)c1ccc(Cl)cc1)C2 [WJ0755, (4-Chlorophenyl)(1-methyl-4,10-dihydrobenzo[b]pyrazolo[3,4-e][1,4]diazepin-5 (1H)-yl)methanone]
Ki [1]: 174 ± 57.4 nM
Emax [2]: 10.2%
EC50 (OXTR agonist potency, mean ± s.d.) [2]: 255 ± 59.7 nM
EC50 [2]: 152 ± 47.3 nM
OV function [2]: 0.09
Ki [3]: 519 ± 110 nM
melting point: 243 to 246 °C
EC50 [4]: > 10000 nM
IC50 [4]: 1670 ± 299 nM

COc1cccc(C(=O)N2Cc3cnn(C)c3Nc3ccccc32)c1 [WJ0657, (3-Methoxyphenyl)(1-methyl-4,10-dihydrobenzo[b]pyrazolo[3,4-e][1,4]diazepin-5 (1H)-yl)methanone]
Ki [1]: 108 ± 23.5 nM
Emax [2]: 4.99%
EC50 (OXTR agonist potency, mean ± s.d.) [2]: 124.9 ± 16.8 nM
EC50 [2]: 338 ± 76.5 nM
OV function [2]: 0.45
Ki [3]: 842 ± 288 nM
melting point: 267 to 269 °C (dec.)
EC50 [4]: > 10000 nM
IC50 [4]: 746 ± 158 nM

Cc1ccc2c(c1)N(C(=O)c1ccccc1)Cc1cnn(C)c1N2 [WJ07117Me, (1,7-Dimethyl-4,10-dihydrobenzo[b]pyrazolo[3,4-e][1,4]diazepin-5 (1H)-yl)(phenyl)methanone]
Ki [1]: 924 nM
EC50 [2]: > 10000 nM
IC50 [2]: > 10000 nM
Ki [3]: 4070 ± 1220 nM
melting point: 235 to 238 °C
EC50 [4]: > 10000 nM
IC50 [4]: > 10000 nM

Cn1ncc2c1Nc1ccccc1N(C(=O)c1cccc(F)c1)C2 [WJ0679, (3-Fluorophenyl)(1-methyl-4,10-dihydrobenzo[b]pyrazolo[3,4-e][1,4]diazepin-5 (1H)-yl)methanone]
time spent in close physical contact (huddling time) (BALB/c mice; all doses (1, 5, 20 mg/kg), most pronounced at 1 and 5 mg/kg, FIG. 1): significantly increased
active social investigation time (BALB/c mice; doses of 1 and 20 mg/kg, FIG. 2): significantly increased
Ki [1]: 105 ± 10.5 nM
Emax [2]: 12.6%
EC50 (OXTR agonist potency, mean ± s.d.) [2]: 316 ± 108 nM
EC50 [2]: 406 ± 74 nM
OV function [2]: 0.18
Ki [3]: 422 ± 129 nM
melting point: 286 to 288 °C (dec.)
EC50 [4]: > 10000 nM
IC50 [4]: 2200 ± 511 nM
